Results: patent US4346075A, “Antibiotic DC-11 and process for production thereof” (Kyowa Hakko Kogyo Co., Ltd., priority 1980, dated 1982)
≈ marks a conversion by molar mass, not a printed value.

What was measured:
[1] = test system: Lymphocytic leukemia P-388 tumor; assay: effect on Lymphocytic leukemia P-388 tumor; assay type: in vivo, male CDF1 mice; conditions: 24 hours following implantation
Method: Five male CDF1 mice having a weight of about 22 g are used for each group as test animals, and 1×10^6 cells of Lymphocytic leukemia P-388 tumor are implanted intraperitoneally in the test animals. Twenty-fours hours following implantation, 0.2 ml PBS solution containing DC-11 in various concentrations is administered intraperitoneally.
For comparison, 0.2 ml PBS solution containing mitomycin C is administered to a group of test animals intraperitoneally at the same time as the test compound.
The average survival period (ASP: days) and T/C (T: average survival days of the groups administered with test compound, C: average survival days of the control group) after implantation are shown in the following Table 6.

[2] = test system: Sarcoma 180 ascites tumor; assay: effect on sarcoma 180 ascites tumor; assay type: in vivo, male ddY-strain mice; conditions: seven days after implantation
Method: Six male ddY-strain mice having a weight of 20 g are used for each group as test animals; and 5×10^6 cells of Sarcoma 180 ascites tumor are implanted in the animals. After 24 hours following implantation, 0.2 ml phosphate buffered saline (PBS) containing DC-11 in various concentrations is administered intraperitoneally. PBS comprises 0.8 g/dl NaCl, 0.02 g/dl KCl, […] Na2 HPO4, 0.02 g/dl KH2 PO4 (pH 7.2).
For comparison, 0.2 ml PBS solution containing mitomycin C is administered to a group of amimals intraperitoneally at the same time as the test compound.
Seven days after implantation, the average tumor volume (mm^3) and T/C (T: average tumor volume of test compound, C: that of control) are determined.

[3] = acute toxicity, intraperitoneal, mice; conditions: mouse, in vivo, ip, intraperitoneally
[4] = test system: Klebsiella pneumoniae ATCC 10031; assay: in vitro antibacterial spectrum, disc method (pH 8.0); assay type: cell-based; conditions: ATCC10031, Klebsiella pneumoniae ATCC 10031, disc method, read-out: Minimum Inhibitory Concentration (MIC)
Text: (§1) The in vitro antibacterial spectra of DC-11 determined by the disc method (pH 8.0) is illustrated in the following Table 4.

[5] = test system: Staphylococcus aureus ATCC 6538 P; assay: as above; assay type: cell-based; conditions: ATCC6538, read-out: Minimum Inhibitory Concentration (MIC)
Text: as §1

[6] = test system: Salmonella typhosa ATCC 9992; assay: as above; assay type: cell-based; conditions: Salmonella enterica, pH 8, read-out: Minimum Inhibitory Concentration (MIC)
Text: as §1

Escherichia coli ATCC 26 = assay: as above; assay type: cell-based; conditions: ATCC26, Escherichia coli ATCC 26, disc method, read-out: Minimum Inhibitory Concentration (MIC)
Text: as §1

[7] = test system: Shigella sonnei ATCC 9290; assay: as above; assay type: cell-based; conditions: ATCC9290, Shigella sonnei ATCC 9290, disc method, read-out: Minimum Inhibitory Concentration (MIC)
Text: as §1

[8] = test system: Bacillus subtilis No. 10707; assay: as above; assay type: cell-based; conditions: Bacillus subtilis No. 10707, disc method, read-out: Minimum Inhibitory Concentration (MIC)
Text: as §1

solubility = assay type: physicochemical

With CO[C@@]12[C@H](COC(N)=O)C3=C(C(=O)C(C)=C(N)C3=O)N1C[C@@H]1N[C@@H]12 [Mitomycin C, mitomycin C, reference compound] the “T/C (average survival days, test group / control group)” value ([1]; 4.2 mg/Kg i.p.) was 1.51, the “average survival period (ASP)” value ([1]; 4.2 mg/Kg i.p.) was 14.2 days and the “T/C (average tumor volume of test compound / control)” value ([2]; 4.2 mg/Kg i.p.) was 0.32. For the same compound, the “V: average tumor volume” value ([2]; 4.2 mg/Kg i.p.) was 450 mm^3.
For COC(=O)NC1C(C)OC(OC2CC=C(C)C3C=CC4C(OC5CC(OC6CCC(OC7CC(O)C(OC8CCC(O)C(C)O8)C(C)O7)C(C)O6)C(OC(C)=O)C(C)O5)C(C)CC(C)C4C3(C)C(=O)C3=C(O)C4(CC(C=O)=CC(O)C4C=C2C)OC3=O)CC1(C)[N+](=O)[O-] (centres unmarked) [DC-11], the LD50 [3] was 54 mg/kg, the MIC [4] was > 100 µg/mL and the MIC [5] was 20 µg/mL (≈ 15.2 µM). The MIC [6] was > 100 µg/mL, the MIC (Escherichia coli ATCC 26) was > 100 µg/mL and the MIC [7] was > 100 µg/mL. The MIC [8] was 0.1 µg/mL (≈ 0.0761 µM), the “T/C (average survival days, test group / control group)” value ([1]; 6.25 mg/Kg i.p.) was 1.20 and the “average survival period (ASP)” value ([1]; 6.25 mg/Kg i.p.) was 11.2 days. The “T/C (average survival days, test group / control group)” value ([1]; 12.5 mg/Kg i.p.) was 1.43, the “average survival period (ASP)” value ([1]; 12.5 mg/Kg i.p.) was 13.4 days and the “T/C (average survival days, test group / control group)” value ([1]; 25.0 mg/Kg i.p.) was 1.38. For the same compound, the “average survival period (ASP)” value ([1]; 25.0 mg/Kg i.p.) was 13.0 days, the “T/C (average tumor volume of test compound / control)” value ([2]; 25 mg/Kg i.p.) was 0.78 and the “V: average tumor volume” value ([2]; 25 mg/Kg i.p.) was 1096 mm^3. The “T/C (average tumor volume of test compound / control)” value ([2]; 50 mg/Kg i.p.) was 0.52, the “V: average tumor volume” value ([2]; 50 mg/Kg i.p.) was 730 mm^3 and the “T/C (average tumor volume of test compound / control)” value ([2]; 70 mg/Kg i.p.) was 0.42. For the same compound, the “V: average tumor volume” value ([2]; 70 mg/Kg i.p.) was 590 mm^3, the Solubility (solubility; benzene and water) was “slightly soluble” and the Solubility (solubility; ethylether, petroleum ether and n-hexane) was “insoluble”. For the same compound, the Solubility (solubility; methanol, ethanol, butanol, acetone, ethyl acetate and chloroform) was “soluble”.
